Reference: patent publication US8765944B2, “Compounds for the treatment of hepatitis C” (priority 2010, dated 2014)
pEC50: −log10 of the molar value.

test system: HCV pseudoparticles; test: HCV pseudoparticle infection assay (luciferase reporter, Huh7 cells); assay type: cell-based, HCV (genotype 1b E1 and E2 envelope); settings: Hepatitis C virus, genotype 1b, Huh-7, 48 h, HCV pseudoparticles (genotype 1b), luciferase activity 2 days after infection

Row | Structure (SMILES) | pEC50
1 | C=CS(=O)(=O)NC(=O)c1ccc(Nc2nc(NC3(c4ccc(Cl)cc4)CC3)nc(OCC(F)(F)F)n2)cc1 [Example 1004] | 8.28
2 | CN(C)S(=O)(=O)NC(=O)c1ccc(Nc2nc(NC3(c4ccc(Cl)cc4)CC3)nc(OCC(F)(F)F)n2)cc1 [Example 1006] | 7.41
3 | CCC1(S(=O)(=O)NC(=O)c2ccc(Nc3nc(NC4(c5ccc(Cl)cc5)CC4)nc(OCC(F)(F)F)n3)cc2)CC1 [Example 1008] | 7.09
4 | O=C(NS(=O)(=O)C1(CN2CCCC2)CC1)c1ccc(Nc2nc(NC3(c4ccc(Cl)cc4)CC3)nc(OCC(F)(F)F)n2)cc1 [Example 1011] | 9.32
5 | CN(C)CC1(S(=O)(=O)NC(=O)c2ccc(Nc3nc(NC4(c5ccc(Cl)cc5)CC4)nc(OCC(F)(F)F)n3)cc2)CC1 [Example 1012] | 9.60
6 | CN(CC1(S(=O)(=O)NC(=O)c2ccc(Nc3nc(NC4(c5ccc(Cl)cc5)CC4)nc(OCC(F)(F)F)n3)cc2)CC1)c1ccccc1 [Example 1021] | 7.03
7 | CNC(=O)OCC1(S(=O)(=O)NC(=O)c2ccc(Nc3nc(NC4(c5ccc(Cl)cc5)CC4)nc(OCC(F)(F)F)n3)cc2)CC1 [Example 1026] | 6.99
8 | O=C(Nc1cccnc1)OCC1(S(=O)(=O)NC(=O)c2ccc(Nc3nc(NC4(c5ccc(Cl)cc5)CC4)nc(OCC(F)(F)F)n3)cc2)CC1 [Example 1028] | 7.22
9 | CS(=O)(=O)NC(=O)CNC(=O)c1ccc(Nc2nc(NC3(c4ccc(Cl)cc4)CC3)nc(OCC(F)(F)F)n2)cc1 [Example 2009] | 7.01
10 | C=CS(=O)(=O)NC(=O)CNC(=O)c1ccc(Nc2nc(NC3(c4ccc(Cl)cc4)CC3)nc(OCC(F)(F)F)n2)cc1 [Example 2010] | 7.17

same assay, conditions: Hepatitis C virus, genotype 1b, Huh-7, 48 h, HCV pseudoparticles (genotype 1b), luciferase activity 2 days after infection, class

Row | Structure (SMILES) | pEC50
11 | O=C(NS(=O)(=O)C1CC1)c1ccc(Nc2nc(NC3(c4ccc(Cl)cc4)CC3)nc(OCC(F)(F)F)n2)cc1 [Example 1001] | 7.00 to 9.30
12 | CS(=O)(=O)NC(=O)c1ccc(Nc2nc(NC3(c4ccc(Cl)cc4)CC3)nc(OCC(F)(F)F)n2)cc1 [Example 1002] | 7.00 to 9.30
13 | CCS(=O)(=O)NC(=O)c1ccc(Nc2nc(NC3(c4ccc(Cl)cc4)CC3)nc(OCC(F)(F)F)n2)cc1 [Example 1003] | 7.00 to 9.30
14 | C=CS(=O)(=O)NC(=O)c1ccc(Nc2nc(NC3(c4ccc(Cl)cc4)CC3)nc(OCC(F)(F)F)n2)cc1 [Example 1004] | 7.00 to 9.30
15 | CC(C)S(=O)(=O)NC(=O)c1ccc(Nc2nc(NC3(c4ccc(Cl)cc4)CC3)nc(OCC(F)(F)F)n2)cc1 [Example 1005] | 7.00 to 9.30
16 | CN(C)S(=O)(=O)NC(=O)c1ccc(Nc2nc(NC3(c4ccc(Cl)cc4)CC3)nc(OCC(F)(F)F)n2)cc1 [Example 1006] | 7.00 to 9.30
17 | CCCC1(S(=O)(=O)NC(=O)c2ccc(Nc3nc(NC4(c5ccc(Cl)cc5)CC4)nc(OCC(F)(F)F)n3)cc2)CC1 [Example 1007] | 7.00 to 9.30
18 | CCC1(S(=O)(=O)NC(=O)c2ccc(Nc3nc(NC4(c5ccc(Cl)cc5)CC4)nc(OCC(F)(F)F)n3)cc2)CC1 [Example 1008] | 7.00 to 9.30
19 | O=C(NS(=O)(=O)CCCCl)c1ccc(Nc2nc(NC3(c4ccc(Cl)cc4)CC3)nc(OCC(F)(F)F)n2)cc1 [Example 1009] | 7.00 to 9.30
20 | COCC1(S(=O)(=O)NC(=O)c2ccc(Nc3nc(NC4(c5ccc(Cl)cc5)CC4)nc(OCC(F)(F)F)n3)cc2)CC1 [Example 1010] | 7.00 to 9.30
21 | O=C(NS(=O)(=O)C1(CN2CCCC2)CC1)c1ccc(Nc2nc(NC3(c4ccc(Cl)cc4)CC3)nc(OCC(F)(F)F)n2)cc1 [Example 1011] | 7.00 to 9.30
22 | CN(C)CC1(S(=O)(=O)NC(=O)c2ccc(Nc3nc(NC4(c5ccc(Cl)cc5)CC4)nc(OCC(F)(F)F)n3)cc2)CC1 [Example 1012] | 7.00 to 9.30
23 | O=C(NS(=O)(=O)C1(CN2CCC2)CC1)c1ccc(Nc2nc(NC3(c4ccc(Cl)cc4)CC3)nc(OCC(F)(F)F)n2)cc1 [Example 1013] | 7.00 to 9.30
24 | CCN(CC)CC1(S(=O)(=O)NC(=O)c2ccc(Nc3nc(NC4(c5ccc(Cl)cc5)CC4)nc(OCC(F)(F)F)n3)cc2)CC1 [Example 1014] | 7.00 to 9.30
25 | O=C(NS(=O)(=O)C1(CN2CCOCC2)CC1)c1ccc(Nc2nc(NC3(c4ccc(Cl)cc4)CC3)nc(OCC(F)(F)F)n2)cc1 [Example 1015] | 7.00 to 9.30
26 | CC1(C)CCCN1CC1(S(=O)(=O)NC(=O)c2ccc(Nc3nc(NC4(c5ccc(Cl)cc5)CC4)nc(OCC(F)(F)F)n3)cc2)CC1 [Example 1016] | 7.00 to 9.30
27 | NC(=O)C1C[C@@H]2C[C@@H]2N1CC1(S(=O)(=O)NC(=O)c2ccc(Nc3nc(NC4(c5ccc(Cl)cc5)CC4)nc(OCC(F)(F)F)n3)cc2)CC1 (some centres unmarked) [Example 1017] | 7.00 to 9.30
28 | CC(=O)N1CCN(CC2(S(=O)(=O)NC(=O)c3ccc(Nc4nc(NC5(c6ccc(Cl)cc6)CC5)nc(OCC(F)(F)F)n4)cc3)CC2)CC1 [Example 1018] | 7.00 to 9.30
29 | O=C(NS(=O)(=O)C1(CN2CCN(c3ccncc3)CC2)CC1)c1ccc(Nc2nc(NC3(c4ccc(Cl)cc4)CC3)nc(OCC(F)(F)F)n2)cc1 [Example 1019] | 7.00 to 9.30
30 | CN1CCN(CC2(S(=O)(=O)NC(=O)c3ccc(Nc4nc(NC5(c6ccc(Cl)cc6)CC5)nc(OCC(F)(F)F)n4)cc3)CC2)CC1 [Example 1020] | 7.00 to 9.30
31 | CN(CC1(S(=O)(=O)NC(=O)c2ccc(Nc3nc(NC4(c5ccc(Cl)cc5)CC4)nc(OCC(F)(F)F)n3)cc2)CC1)c1ccccc1 [Example 1021] | 7.00 to 9.30
32 | CN(CC1(S(=O)(=O)NC(=O)c2ccc(Nc3nc(NC4(c5ccc(Cl)cc5)CC4)nc(OCC(F)(F)F)n3)cc2)CC1)C1CC1 [Example 1022] | 7.00 to 9.30
33 | CC1(C)CCN(CC2(S(=O)(=O)NC(=O)c3ccc(Nc4nc(NC5(c6ccc(Cl)cc6)CC5)nc(OCC(F)(F)F)n4)cc3)CC2)C1 [Example 1023] | 7.00 to 9.30
34 | O=C(NS(=O)(=O)C1(CN2CC3CC3C2)CC1)c1ccc(Nc2nc(NC3(c4ccc(Cl)cc4)CC3)nc(OCC(F)(F)F)n2)cc1 (centres unmarked) [Example 1024] | 7.00 to 9.30
35 | O=C(NS(=O)(=O)C1(CO)CC1)c1ccc(Nc2nc(NC3(c4ccc(Cl)cc4)CC3)nc(OCC(F)(F)F)n2)cc1 [Example 1025, 4-(4-(1-(4-chlorophenyl)cyclopropylamino)-6-(2,2,2-trifluoroethoxy)-1,3,5-triazin-2-ylamino)-N-(1-(hydroxymethyl)cyclopropylsulfonyl)benzamide] | 7.00 to 9.30
36 | CNC(=O)OCC1(S(=O)(=O)NC(=O)c2ccc(Nc3nc(NC4(c5ccc(Cl)cc5)CC4)nc(OCC(F)(F)F)n3)cc2)CC1 [Example 1026] | 6.00 to 7.00
37 | CC(C)NC(=O)OCC1(S(=O)(=O)NC(=O)c2ccc(Nc3nc(NC4(c5ccc(Cl)cc5)CC4)nc(OCC(F)(F)F)n3)cc2)CC1 [Example 1027] | 7.00 to 9.30
38 | O=C(Nc1cccnc1)OCC1(S(=O)(=O)NC(=O)c2ccc(Nc3nc(NC4(c5ccc(Cl)cc5)CC4)nc(OCC(F)(F)F)n3)cc2)CC1 [Example 1028] | 7.00 to 9.30

Row | Structure (SMILES) | pEC50
39 | O=C(NS(=O)(=O)CCN1CCCC1)c1ccc(Nc2nc(NC3(c4ccc(Cl)cc4)CC3)nc(OCC(F)(F)F)n2)cc1 [Example 1029, 4-(4-(1-(4-chlorophenyl)cyclopropylamino)-6-(2,2,2-trifluoroethoxy)-1,3,5-triazin-2-ylamino)-N-(2-(pyrrolidin-1-yl)ethylsulfonyl)benzamide] | 7.00 to 9.30
40 | O=C(NS(=O)(=O)CCN1CCOCC1)c1ccc(Nc2nc(NC3(c4ccc(Cl)cc4)CC3)nc(OCC(F)(F)F)n2)cc1 [Example 1030] | 7.00 to 9.30
41 | CN(C)CCS(=O)(=O)NC(=O)c1ccc(Nc2nc(NC3(c4ccc(Cl)cc4)CC3)nc(OCC(F)(F)F)n2)cc1 [Example 1031] | 7.00 to 9.30
42 | CCN(CC)CCS(=O)(=O)NC(=O)c1ccc(Nc2nc(NC3(c4ccc(Cl)cc4)CC3)nc(OCC(F)(F)F)n2)cc1 [Example 1032] | 7.00 to 9.30
43 | CC(C)(C)CNCCS(=O)(=O)NC(=O)c1ccc(Nc2nc(NC3(c4ccc(Cl)cc4)CC3)nc(OCC(F)(F)F)n2)cc1 [Example 1033] | 7.00 to 9.30
44 | O=C(NS(=O)(=O)CCNCc1ccccc1)c1ccc(Nc2nc(NC3(c4ccc(Cl)cc4)CC3)nc(OCC(F)(F)F)n2)cc1 [Example 1034] | 7.00 to 9.30
45 | CC(C)NCCS(=O)(=O)NC(=O)c1ccc(Nc2nc(NC3(c4ccc(Cl)cc4)CC3)nc(OCC(F)(F)F)n2)cc1 [Example 1035] | 7.00 to 9.30
46 | CC(=O)NCCS(=O)(=O)NC(=O)c1ccc(Nc2nc(NC3(c4ccc(Cl)cc4)CC3)nc(OCC(F)(F)F)n2)cc1 [Example 1036] | 7.00 to 9.30
47 | O=C(NCCS(=O)(=O)NC(=O)c1ccc(Nc2nc(NC3(c4ccc(Cl)cc4)CC3)nc(OCC(F)(F)F)n2)cc1)c1ccccc1 [Example 1037] | 7.00 to 9.30
48 | CC(C)C(=O)NCCS(=O)(=O)NC(=O)c1ccc(Nc2nc(NC3(c4ccc(Cl)cc4)CC3)nc(OCC(F)(F)F)n2)cc1 [Example 1038] | 7.00 to 9.30
49 | O=C(NS(=O)(=O)CCNC(=O)C1CC1)c1ccc(Nc2nc(NC3(c4ccc(Cl)cc4)CC3)nc(OCC(F)(F)F)n2)cc1 [Example 1039] | 7.00 to 9.30
50 | O=C(CC(F)(F)F)NCCS(=O)(=O)NC(=O)c1ccc(Nc2nc(NC3(c4ccc(Cl)cc4)CC3)nc(OCC(F)(F)F)n2)cc1 [Example 1040] | 7.00 to 9.30
51 | CC(C)(C)OC(=O)N1CCC[C@H]1C(=O)NCCS(=O)(=O)NC(=O)c1ccc(Nc2nc(NC3(c4ccc(Cl)cc4)CC3)nc(OCC(F)(F)F)n2)cc1 [Example 1041] | 7.00 to 9.30
52 | CC(C)(C)OC(=O)N1CCC(C(=O)NCCS(=O)(=O)NC(=O)c2ccc(Nc3nc(NC4(c5ccc(Cl)cc5)CC4)nc(OCC(F)(F)F)n3)cc2)CC1 [Example 1042] | 7.00 to 9.30
53 | O=C(NCCS(=O)(=O)NC(=O)c1ccc(Nc2nc(NC3(c4ccc(Cl)cc4)CC3)nc(OCC(F)(F)F)n2)cc1)c1cccnc1 [Example 1043] | 7.00 to 9.30
54 | COC(=O)NCCS(=O)(=O)NC(=O)c1ccc(Nc2nc(NC3(c4ccc(Cl)cc4)CC3)nc(OCC(F)(F)F)n2)cc1 [Example 1044] | 7.00 to 9.30
55 | CC(C)OC(=O)NCCS(=O)(=O)NC(=O)c1ccc(Nc2nc(NC3(c4ccc(Cl)cc4)CC3)nc(OCC(F)(F)F)n2)cc1 [Example 1045] | 7.00 to 9.30
56 | CC(C)(C)COC(=O)NCCS(=O)(=O)NC(=O)c1ccc(Nc2nc(NC3(c4ccc(Cl)cc4)CC3)nc(OCC(F)(F)F)n2)cc1 [Example 1046] | 7.00 to 9.30
57 | CNC(=O)NCCS(=O)(=O)NC(=O)c1ccc(Nc2nc(NC3(c4ccc(Cl)cc4)CC3)nc(OCC(F)(F)F)n2)cc1 [Example 1047] | 7.00 to 9.30
58 | CC(C)NC(=O)NCCS(=O)(=O)NC(=O)c1ccc(Nc2nc(NC3(c4ccc(Cl)cc4)CC3)nc(OCC(F)(F)F)n2)cc1 [Example 1048] | 7.00 to 9.30
59 | CC(C)(C)NC(=O)NCCS(=O)(=O)NC(=O)c1ccc(Nc2nc(NC3(c4ccc(Cl)cc4)CC3)nc(OCC(F)(F)F)n2)cc1 [Example 1049] | 7.00 to 9.30
60 | O=C(NCCS(=O)(=O)NC(=O)c1ccc(Nc2nc(NC3(c4ccc(Cl)cc4)CC3)nc(OCC(F)(F)F)n2)cc1)Nc1cccnc1 [Example 1050] | 7.00 to 9.30
61 | CS(=O)(=O)NC(=O)CNC(=O)c1ccc(Nc2nc(NC3(c4ccc(Cl)cc4)CC3)nc(OCC(F)(F)F)n2)cc1 [Example 2009] | 7.00 to 9.30
62 | C=CS(=O)(=O)NC(=O)CNC(=O)c1ccc(Nc2nc(NC3(c4ccc(Cl)cc4)CC3)nc(OCC(F)(F)F)n2)cc1 [Example 2010] | 7.00 to 9.30
63 | CS(=O)(=O)NC(=O)CCCCNC(=O)c1ccc(Nc2nc(NC3(c4ccc(Cl)cc4)CC3)nc(OCC(F)(F)F)n2)cc1 [Example 2011] | 7.00 to 9.30
64 | O=C(CCCCNC(=O)c1ccc(Nc2nc(NC3(c4ccc(Cl)cc4)CC3)nc(OCC(F)(F)F)n2)cc1)NS(=O)(=O)C1CC1 [Example 2012] | 7.00 to 9.30
65 | CC(C)S(=O)(=O)NC(=O)CCCCNC(=O)c1ccc(Nc2nc(NC3(c4ccc(Cl)cc4)CC3)nc(OCC(F)(F)F)n2)cc1 [Example 2013] | 7.00 to 9.30
